Key:
[1] = system: P. aeruginosa; test: killing efficiency / minimum bactericidal concentration; assay type: cell-based, Pseudomonas aeruginosa; settings: single agent
Method: Procedure for hydrogels: E. coli, P. aeruginosa, S. aureus and C. albicans were obtained from ATCC and reconstituted from its lyophilized form according to the manufacturer's protocol. Bacterial samples were cultured in Tryptic Soy Broth (TSB) solution at 37° C. under constant shaking of 300 rpm. C. albicans was culture in yeast medium at room temperature under constant shaking of 70 rpm. Prior to treatment, the bacterial sample was first inoculated and cultured to enter into log growth phase. To prepare the antimicrobial hydrogels, cationic polymer was first dissolved in filtered HPLC water in a bio-hood. […] For instance, cationic polymer VE/BnCl(1:30) or cationic polymer VE/PrBr(1:30) was dissolved by using sterile HPLC grade water to form a polymer solution at various concentrations. This solution was then used to dissolve […]1.25 to form a 4 wt. % hydrogel containing various concentrations of the cationic polymers. […] The concentration of bacterial solution was adjusted to give an initial optical density (O.D.) reading of approximately 0.07 at 600 nm wavelength on a microplate reader (TECAN, Switzerland), which corresponds to the concentration of McFarland 1 solution (3×10^8 CFU/mL). […] The plates were incubated for 24 hours at 37° C. and the number of colony-forming units (CFU) was counted. […]

[2] = system: C. albicans; test: killing efficiency of solutions; assay type: cell-based, Candida albicans; settings: solution, fluconazole at 5.0 mg/L
Method: A stock solution of cationic polymer VE/PrBr(1:15) (5 mg) in sterile HPLC grade water (10 mL) was prepared having a final concentration of 500 mg/L (500 ppm). A second stock solution of fluconazole (1 mg) in sterile HPLC grade water (100 mL) was prepared having a final concentration of 10 mg/L (10 ppm). Three solutions were prepared: (1) cationic polymer alone at 1.0MIC=250 mg/L (250 ppm) against C. albicans, (2) A cationic polymer/fluconazole solution containing VE/PrBr(1:15) at 0.5MIC=125 mg/L (125 ppm) against C. albicans and fluconazole at 2.5 mg/L (2.5 ppm), and (3) fluconazole alone at 5.0 mg/L (5 ppm). Formulation (2) was obtained by combining […] each of the stock solutions of cationic polymer and fluconazole and diluting the resulting solution with 750 microliters of sterile HPLC grade water.

Row | Molecule | MBC against P. aeruginosa [1] | killing efficiency against C. albicans [2]
1 | Doxycycline [DXY] | 20 to 30 µg/mL | 
2 | OC(Cn1cncn1)(Cn1cncn1)c1ccc(F)cc1F [fluconazole, Fluconazole] |  | 93.53%
